Test results from BindingDB's records for patent US9682141 (Intellikine LLC, 2017).

Legend:
[1] = molecular target: Phosphatidylinositol 4,5-bisphosphate 3-kinase catalytic subunit beta isoform (Homo sapiens, UniProt P42338); assay: PI 3-Kinase HTRF Assay; conditions: 25 °C
Experimental: (§1) Briefly, the assay is a time resolved FRET assay that indirectly measures PIP3 product formed by the activity of a PI3-K. The kinase reaction is performed in a microtitre plate (e.g., a 384 well microtitre plate). The total reaction volume is approximately 20 ul per well. In the first step, each well receives 2 ul of test compound in 20% dimethylsulphoxide resulting in a 2% DMSO final concentration. Next, approximately 14.5 ul of a kinase/PIP2 mixture (diluted in 1x reaction buffer) is added per well for a final concentration of 0.25-0.3 ug/ml kinase and 10 uM PIP2. The plate is sealed and incubated for 15 minutes at room temperature. To start the reaction, 3.5 ul of ATP (diluted in 1x reaction buffer) is added per well for a final concentration of 10 uM ATP. The plate is sealed and incubated for 1 hour at room temperature. The reaction is stopped by adding 5 ul of Stop Solution per well and then 5 ul of Detection Mix is added per well. The plate is sealed, incubated for 1 hour at room temperature, and then read on an appropriate plate reader.

[2] = molecular target: Phosphatidylinositol 4,5-bisphosphate 3-kinase catalytic subunit alpha isoform (Homo sapiens, UniProt P42336); assay: PI 3-Kinase HTRF Assay; conditions: 25 °C
Chain of Phosphatidylinositol 4,5-bisphosphate 3-kinase catalytic subunit alpha isoform (P42336 whole entry, canonical isoform): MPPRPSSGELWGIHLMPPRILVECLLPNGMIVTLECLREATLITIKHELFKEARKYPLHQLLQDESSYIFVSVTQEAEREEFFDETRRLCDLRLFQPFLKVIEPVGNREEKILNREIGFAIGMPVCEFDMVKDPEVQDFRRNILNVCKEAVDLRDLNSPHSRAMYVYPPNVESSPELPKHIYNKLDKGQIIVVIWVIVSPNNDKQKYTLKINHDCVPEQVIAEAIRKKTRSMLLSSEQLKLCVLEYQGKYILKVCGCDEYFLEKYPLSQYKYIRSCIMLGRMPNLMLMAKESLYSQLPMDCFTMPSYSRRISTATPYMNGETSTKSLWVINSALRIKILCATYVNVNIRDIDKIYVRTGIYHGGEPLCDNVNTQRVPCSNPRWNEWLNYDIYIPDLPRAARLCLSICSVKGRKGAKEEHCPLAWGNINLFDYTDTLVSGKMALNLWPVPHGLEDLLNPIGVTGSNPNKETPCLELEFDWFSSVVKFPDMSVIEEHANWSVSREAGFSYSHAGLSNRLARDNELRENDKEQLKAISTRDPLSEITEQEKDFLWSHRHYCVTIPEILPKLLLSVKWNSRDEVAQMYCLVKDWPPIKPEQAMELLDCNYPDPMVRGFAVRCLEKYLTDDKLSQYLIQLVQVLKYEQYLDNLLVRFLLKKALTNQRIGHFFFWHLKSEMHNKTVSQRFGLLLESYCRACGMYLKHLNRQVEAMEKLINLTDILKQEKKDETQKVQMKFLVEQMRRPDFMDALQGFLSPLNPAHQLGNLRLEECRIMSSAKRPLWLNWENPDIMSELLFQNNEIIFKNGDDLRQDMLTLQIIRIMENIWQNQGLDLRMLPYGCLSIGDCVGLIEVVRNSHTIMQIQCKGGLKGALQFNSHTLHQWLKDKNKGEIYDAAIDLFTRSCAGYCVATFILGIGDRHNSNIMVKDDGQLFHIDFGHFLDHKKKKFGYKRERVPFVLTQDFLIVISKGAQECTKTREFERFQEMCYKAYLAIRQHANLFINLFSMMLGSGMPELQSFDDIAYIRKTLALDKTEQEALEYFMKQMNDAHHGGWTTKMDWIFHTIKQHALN
Experimental: as §1

Chain of Phosphatidylinositol 4,5-bisphosphate 3-kinase catalytic subunit beta isoform (P42338 whole entry, canonical isoform): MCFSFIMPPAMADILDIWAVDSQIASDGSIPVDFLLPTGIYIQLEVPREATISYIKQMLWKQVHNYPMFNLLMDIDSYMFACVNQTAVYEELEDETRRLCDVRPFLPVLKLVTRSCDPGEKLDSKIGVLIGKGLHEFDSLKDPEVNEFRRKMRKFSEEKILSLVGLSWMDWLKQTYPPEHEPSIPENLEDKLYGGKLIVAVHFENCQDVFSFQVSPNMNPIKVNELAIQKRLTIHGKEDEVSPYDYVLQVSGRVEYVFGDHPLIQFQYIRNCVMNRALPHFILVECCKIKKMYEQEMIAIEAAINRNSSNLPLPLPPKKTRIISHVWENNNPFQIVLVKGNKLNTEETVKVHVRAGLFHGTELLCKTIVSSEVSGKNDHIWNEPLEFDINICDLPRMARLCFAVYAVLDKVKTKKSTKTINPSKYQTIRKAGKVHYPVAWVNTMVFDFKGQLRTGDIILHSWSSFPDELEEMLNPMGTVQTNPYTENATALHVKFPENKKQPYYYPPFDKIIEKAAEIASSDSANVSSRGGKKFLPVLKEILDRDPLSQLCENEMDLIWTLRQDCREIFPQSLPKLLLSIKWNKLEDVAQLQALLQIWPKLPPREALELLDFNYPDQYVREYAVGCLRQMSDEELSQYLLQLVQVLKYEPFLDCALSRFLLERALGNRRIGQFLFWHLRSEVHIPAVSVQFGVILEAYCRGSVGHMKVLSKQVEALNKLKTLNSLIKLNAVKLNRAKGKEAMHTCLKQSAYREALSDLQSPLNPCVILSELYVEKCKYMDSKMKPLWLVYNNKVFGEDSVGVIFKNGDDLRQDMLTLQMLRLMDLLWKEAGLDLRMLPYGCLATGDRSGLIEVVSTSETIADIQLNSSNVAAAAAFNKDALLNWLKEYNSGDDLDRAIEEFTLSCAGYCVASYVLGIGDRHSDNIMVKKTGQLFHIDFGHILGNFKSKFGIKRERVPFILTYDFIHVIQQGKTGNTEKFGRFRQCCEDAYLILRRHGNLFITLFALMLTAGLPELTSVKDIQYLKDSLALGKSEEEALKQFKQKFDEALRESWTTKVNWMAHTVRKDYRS

Compound	IC50 [1]	IC50 [2]
Nc1nc2cc(-c3ccc4ncc(-c5ccncc5)n4c3)ccc2o1 [US9682141, 6]	< 10 µM	
Nc1nc2cc(-c3ccc4ncn(-c5ccccc5)c4c3)ccc2o1 [US9682141, 11]	< 10 µM	< 0.1 µM
